According to patent US11414387B2, “Oxoacridinyl acetic acid derivatives and methods of use” (Stingthera, Inc., priority 2017, dated 2022):

Biological target: hSTING-CTD (Homo sapiens (Human), UniProt Q86WV6)
Test: Human STING protein FP competition concentration response assay
Format: binding
Method: (§1) A validated STING ligand, such as c-di-GMP, which is labeled with a read-out signal (e.g., a fluorescence signal such as fluorescein), is mixed with STING-CTD (e.g., mouse STING-CTD or human STING-CTD) with or without the presence of a compound of the present application. Changes in the read-out signal are measured (e.g., by fluorescence anisotropy) to determine the binding of the compound to STING-CTD.
(§2) Fluorescein labeled c-di-GMP, a validated STING ligand, was mixed with recombinant hSTING-CTD in a homogenous assay format with or without the presence of a compound of the present application (titrated) in PBS in black 384-well plates (10 μL per well). The fluorescence anisotropy was determined on a PerkinElmer EnVisions multi-mode plate reader. The plate can be read immediately after mixing the reagents or after a few hours without change of signals.
• 1) hSTING (Supplier: HDB) • 2) 2′-Fluo-AHC-c-di GMP (BIOLOG #F009) • 3) 2′3′-cGAMP (BIOLOG #C161) • 4) DMXAA (InvivoGen #tlrl-dmx) • 5) DMSO (Sigma, #D5879-100 mL) • 6) 10×PBS(HDB #MCP-020) • 7) Assay plate, 384-well black plate, solid black bottom (Greiner #784076) • 8) Compound dilution intermediate plate, 384 LDV plate (Labcyte #LP-0200) • 9) Liquid handler, ECHO550 (Labcyte) • 10) Liquid handler, Bravo (Aglient) • 11) Reader, Envision (PerkinElmer) • 12) Centrifuge (Eppendorf) • 13) Multichannel Pipette (Raining) • 14) 10 ml Reservoir (Corning) • 15) 15 ml centrifuge tube (Corning) • 16) Adhesive Plate seals (BioRad) Compound Preparation • a) Containers of each compound were centrifuged at 1000 rpm for 5 min. • b) Compounds were dissolved in DMSO at 30 mM. • c) Compounds were sufficiently vortexed, and centrifuged at 1000 rpm for 1 min. • d) 16 uL of the compound solution was transferred into a LDV Compound Plate. • e) 2-fold serial dilutions of the compound solution were made with DMSO, and 14 concentrations were made in the 384-well LDV Compound Plate. • f) The LDV plate was spun at 1000 rpm for 60 sec and sealed with foil (stored at −20° C. if not used immediately). • g) 335 nL of each compound from the LDV Compound Plate was transferred to Assay Plate (ECHO550). Probe Preparation • a) 200 uM probe stock (2′-Fluo-AHC-c-diGMP) was diluted by ddH2O to 6 uM working concentration. • b) 10-12 uL 6 uM working solution of probe was transferred into the LDV plate. • c) 50 nL per well 6 uM working solution of probe was transferred from the LDV plate to each well of the empty Assay Plate (Greiner 784076) by ECHO550 Buffer mode. • d) Probe final concentration was 30 nM when assay system was 10 uL. • e) The Assay Plate was spun at 1000 rpm for 1 min. Compound Addition • a) After the LDV Compound Plate was prepared, 335 nL compound (ECHO550 DMSO mode) was transferred from the LDV Compound Plate into the Assay Plate (Greiner 784076) containing 50 nL probe in each well according to the Assay Plate layout. • b) DMSO final concentration was 3.35% when assay system was 10 uL. • c) The Assay Plate was spun at 1000 rpm for 1 min. Protein Addition • a) Aliquot of hSTING protein was thawed on ice, briefly to generate uniform solution. • b) 55 uM stock protein was diluted in 1×PBS assay buffer to generate 10 uM final solutions. • c) For test compound and ZPE wells, 10 μL per well of 10 uM protein solutions was added into the Assay Plate containing both the probe and test compounds or DMSO using multichannel pipette. • d) For HPE wells, 10 μL/well of 1×PBS assay buffer instead of protein was added into the Assay Plate containing both the probe and DMSO using multichannel pipette. • e) The Assay Plate was spun at 1000 rpm for Imin. • f) The Assay Plate was incubated at r.t. for 10-20 min.
(§3) The EnVision plate reader was used to record the FA value of each well immediately after mixing the reagents or after a few hours without change of signals.
(§4) The raw data and calculated data (Fluorescence anisotropy (FA)) was exported from the EnVision reader. […]

Sequence of hSTING-CTD (Q86WV6 135-379): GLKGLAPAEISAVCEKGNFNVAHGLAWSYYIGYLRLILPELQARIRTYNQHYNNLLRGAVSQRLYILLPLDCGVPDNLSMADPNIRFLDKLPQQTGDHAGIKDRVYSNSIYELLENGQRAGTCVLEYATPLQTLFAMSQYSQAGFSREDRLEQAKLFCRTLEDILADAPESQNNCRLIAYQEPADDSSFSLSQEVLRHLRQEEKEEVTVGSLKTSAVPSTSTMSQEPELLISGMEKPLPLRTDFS

IC50	Compound
< 100 µM	O=C(O)Cn1c2cc(N3CCOCC3)ccc2c(=O)c2ccc(Cl)c(Cl)c21 [Compound 60]
100 to 500 µM	Cc1ccc2c(=O)c3ccc(Br)cc3n(CC(=O)O)c2c1 [Compound 53]
100 to 500 µM	CN(C)c1ccc2c(=O)c3ccc(Cl)c(Cl)c3n(CC(=O)O)c2c1 [Compound 71]
500 to 1000 µM	Cc1c(C2=CCCCC2)ccc2c(=O)c3ccccc3n(CC(=O)O)c12 [Compound 28]
500 to 1000 µM	O=C(O)Cn1c2ccccc2c(=O)c2ccc3c(c21)CCCC3 [Compound 9]
< 100 µM	O=C(O)Cn1c2cc(NC3CCCCC3)ccc2c(=O)c2ccc(Cl)c(Cl)c21 [Compound 59]
500 to 1000 µM	Cc1c(Cl)ccc2c(=O)c3ccccc3n(CC(=O)O)c12 [Compound 98]
100 to 500 µM	CCc1ccc2c(=O)c3ccc(Cl)c(Cl)c3n(CC(=O)O)c2c1 [Compound 82]
100 to 500 µM	Cc1ccc2c(=O)c3cc(CCc4ccccc4C)ccc3n(CC(=O)O)c2c1 [Compound 75]
> 1000 µM	Cc1ccc2c(=O)c3ccc(C)cc3n(CC(=O)O)c2c1 [Compound 15]
500 to 1000 µM	Cc1ccc2c(=O)c3cccc(Cl)c3n(CC(=O)O)c2c1 [Compound 12]
< 100 µM	CC(C)(C)c1ccc2c(=O)c3ccc(Cl)c(Cl)c3n(CC(=O)O)c2c1 [Compound 47]
< 100 µM	CC(C)c1ccc2c(=O)c3ccc(Cl)c(Cl)c3n(CC(=O)O)c2c1 [Compound 81]
500 to 1000 µM	O=C(O)Cn1c2ccccc2c(=O)c2ccc(CCc3ccccc3)cc21 [Compound 26]
< 100 µM	O=C(O)Cn1c2cc(N3CCCCC3)ccc2c(=O)c2ccc(Cl)c(Cl)c21 [Compound 61]
> 1000 µM	Cc1c(CCc2ccccc2)ccc2c(=O)c3ccccc3n(CC(=O)O)c12 [Compound 27]
500 to 1000 µM	O=C(O)Cn1c2ccccc2c(=O)c2cc(C#Cc3ccccc3)ccc21 [Compound 22]
> 1000 µM	O=C(O)Cn1c2ccccc2c(=O)c2cccc(Cl)c21 [Compound 8]
> 1000 µM	Cc1ccc2c(c1)c(=O)c1ccccc1n2CC(=O)O [Compound 10]
> 1000 µM	Cc1cccc2c(=O)c3ccccc3n(CC(=O)O)c12 [Compound 7]

Biological target: mSTING-CTD (Mus musculus (Mouse), UniProt Q3TBT3)
Sequence (Q3TBT3 134-378): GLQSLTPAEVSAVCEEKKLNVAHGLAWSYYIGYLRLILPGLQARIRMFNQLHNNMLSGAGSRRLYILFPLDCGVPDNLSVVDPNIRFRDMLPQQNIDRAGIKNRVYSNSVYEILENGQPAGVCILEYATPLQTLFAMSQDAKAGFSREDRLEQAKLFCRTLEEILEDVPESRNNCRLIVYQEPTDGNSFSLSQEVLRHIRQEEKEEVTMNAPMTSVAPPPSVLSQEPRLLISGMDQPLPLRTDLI
Test: Mouse STING protein FP competition concentration response assay
Format: binding
Method: as §1
as §2, with “c-di-GMP” for “c-di-GMP, a validated STING ligand,”, “mSTING-CTD” for “recombinant hSTING-CTD in a homogenous assay format”, “application” for “application (titrated)”
• 1) 6×his-sumo-mSTING (Supplier: HDB) • 2) 2′-Fluo-AHC-c-di GMP (BIOLOG #F009) • 3) 23-cGAMP (BIOLOG #C161) • 4) DMXAA (InvivoGen #tlrl-dmx) • 5) DMSO (Sigma. #D5879-100 mL) • 6) 10×PBS(HDB #MCP-020) • 7) Assay plate, 384-well black plate, solid black bottom (Greiner #784076) • 8) Compound dilution intermediate plate, 384 LDV plate (Labcyte #LP-0200) • 9) Liquid handler, ECHO550 (Labcyte) • 10) Liquid handler, Bravo (Aglient) • 11) Reader, Envision (PerkinElmer) • 12) Centrifuge (Eppendorf) • 13) Multichannel Pipette (Raining) • 14) 10 ml Reservoir (Corning) • 15) 15 ml centrifuge tube (Corning) • 16) Adhesive Plate seals (BioRad) Compound Preparation • a) Containers of each compound were centrifuged at 1000 rpm for 5 min. • b) Compounds were dissolved in DMSO at 30 mM. • c) Compounds were sufficiently vortexed, and centrifuged at 1000 rpm for 1 min. • d) 16 uL of the compound solution was transferred into a LDV Compound Plate. • e) 2-fold serial dilutions of the compound solution were made with DMSO, and 14 concentrations were made in the 384-well LDV Compound Plate. • f) The LDV plate was spun at 1000 rpm for 60 sec and sealed with foil (stored at −20° C. if not used immediately). • g) 335 nL of each compound from the LDV Compound Plate was transferred to Assay Plate (ECHO550). Probe Preparation • a) 200 uM probe stock (2′-Fluo-AHC-c-diGMP) was diluted by dd2O to 6 uM working concentration. • b) 10-12 uL 6 uM working solution of probe was transferred into the LDV plate. • c) 50 nL per well 6 uM working solution of probe was transferred from the LDV plate to each well of the empty Assay Plate (Greiner 784076) by ECHO550 Buffer mode. • d) Probe final concentration was 30 nM when assay system was 10 uL. • e) The Assay Plate was spun at 1000 rpm for 1 min. Compound Addition • a) After the LDV Compound Plate was prepared, 100 nL compound (ECHO550 DMSO mode) was transferred from the LDV Compound Plate into the Assay Plate (Greiner 784076) containing 50 nL probe in each well according to the Assay Plate layout. • b) DMSO final concentration was 1% when assay system was 10 uL. • c) The Assay Plate was spun at 1000 rpm for 1 min. Protein Addition • a) Aliquot of 6×his-sumo-mSTING protein was thawed on ice, briefly to generate uniform solution. • b) 66 uM stock protein was diluted in 1×PBS assay buffer to generate 8 uM final solutions. • c) For test compound and ZPE wells, 10 μL per well of 8 uM protein solutions was added into the Assay Plate containing both the probe and test compounds or DMSO using multichannel pipette. • d) For HPE wells, 10 µL/well of 1×PBS assay buffer instead of protein was added into the Assay Plate containing both the probe and DMSO using multichannel pipette. • e) The Assay Plate was spun at 1000 rpm for 1 min. • f) The Assay Plate was incubated at r.t. for 10-20 min.
as §3, §4

IC50	Compound
10 to 50 µM	O=C(O)Cn1c2cc(N3CCOCC3)ccc2c(=O)c2ccc(Cl)c(Cl)c21 [Compound 60]
10 to 50 µM	Cc1ccc2c(=O)c3ccc(Br)cc3n(CC(=O)O)c2c1 [Compound 53]
10 to 50 µM	CN(C)c1ccc2c(=O)c3ccc(Cl)c(Cl)c3n(CC(=O)O)c2c1 [Compound 71]
10 to 50 µM	Cc1c(C2=CCCCC2)ccc2c(=O)c3ccccc3n(CC(=O)O)c12 [Compound 28]
< 10 µM	O=C(O)Cn1c2ccccc2c(=O)c2ccc3c(c21)CCCC3 [Compound 9]
10 to 50 µM	O=C(O)Cn1c2cc(NC3CCCCC3)ccc2c(=O)c2ccc(Cl)c(Cl)c21 [Compound 59]
10 to 50 µM	Cc1c(Cl)ccc2c(=O)c3ccccc3n(CC(=O)O)c12 [Compound 98]
50 to 100 µM	CCc1ccc2c(=O)c3ccc(Cl)c(Cl)c3n(CC(=O)O)c2c1 [Compound 82]
> 100 µM	Cc1ccc2c(=O)c3cc(CCc4ccccc4C)ccc3n(CC(=O)O)c2c1 [Compound 75]
10 to 50 µM	Cc1ccc2c(=O)c3ccc(C)cc3n(CC(=O)O)c2c1 [Compound 15]
< 10 µM	Cc1ccc2c(=O)c3cccc(Cl)c3n(CC(=O)O)c2c1 [Compound 12]
10 to 50 µM	CC(C)(C)c1ccc2c(=O)c3ccc(Cl)c(Cl)c3n(CC(=O)O)c2c1 [Compound 47]
10 to 50 µM	CC(C)c1ccc2c(=O)c3ccc(Cl)c(Cl)c3n(CC(=O)O)c2c1 [Compound 81]
< 10 µM	O=C(O)Cn1c2ccccc2c(=O)c2ccc(CCc3ccccc3)cc21 [Compound 26]
10 to 50 µM	O=C(O)Cn1c2cc(N3CCCCC3)ccc2c(=O)c2ccc(Cl)c(Cl)c21 [Compound 61]
50 to 100 µM	Cc1c(CCc2ccccc2)ccc2c(=O)c3ccccc3n(CC(=O)O)c12 [Compound 27]
10 to 50 µM	O=C(O)Cn1c2ccccc2c(=O)c2cc(C#Cc3ccccc3)ccc21 [Compound 22]
10 to 50 µM	O=C(O)Cn1c2ccccc2c(=O)c2cccc(Cl)c21 [Compound 8]
10 to 50 µM	Cc1ccc2c(c1)c(=O)c1ccccc1n2CC(=O)O [Compound 10]
10 to 50 µM	Cc1cccc2c(=O)c3ccccc3n(CC(=O)O)c12 [Compound 7]
